According to patent US20150245613A1 (priority 2012, published 2015):
Read-outs that look alike come from different tables or passages of the source.

Tests used:
[1] = system: wheat Fusarium head blight; format: in vivo, Fusarium graminearum; conditions: cut wheat ears, 5 days after inoculation
wheat brown rust = assay: Test Example 5: controlling effect on wheat brown rust, field test (cultivar NORIN No. 61), Colby; format: in vivo, Puccinia recondita; conditions: 20 days after spray
Excerpt: A (theoretical) preventive value obtained in a case where the chemical suspension is sprayed=A1+((100−A1)×A2)/100
where A1 and A2 represent (i) the preventive value obtained in a case where the compound I-1 is sprayed and (ii) the preventive value obtained in a case where fluxapyroxad is sprayed.
Wheat seeds (cultivar: NORIN No. 61) were sown in a field in autumn of one (1) year earlier than a year when chemicals were sprayed, and the chemicals were sprayed over wheat plants at the flowering stage of the wheat plants. […] Specifically, the wheat seeds were sown in two rows with 30 cm inter-row spacing in the field in the autumn. (i) Chemical suspensions each of which contained the compound I-1 and Fluxapyroxad, (ii) a chemical suspension containing the compound I-1 and (iii) chemical suspensions each of which contained Fluxapyroxad, were diluted with water so that each ingredient of the chemical suspensions was in a predetermined amount to be used. Each of the chemical suspensions was then sprayed over the wheat plants at the flowering stage in the year. After the spray of the chemical suspensions, a pot, in which diseased wheat plants with brown rust were planted, was put in each test plot between the two rows of the wheat plants so that the wheat plants were prompted to get infected with wheat brown rust. Each test was conducted in three test plots, each of which test plots is of 0.5 m×4 m (2 m^2). In 20 days after the spray of the chemical suspensions, the occurrence of wheat brown rust was investigated in 20 flag leaves which were selected at random from one of the three test plots. An index of the occurrence (index of disease severity of wheat brown rust) was then calculated. A theoretical preventive value (an expected preventive value) obtained in a case where the chemical suspension containing the compound I-1 and Fluxapyroxad is sprayed was calculated, by use of the above Colby's formula (see Test Example 1), on the basis of (i) a preventive value obtained in a case where only the compound I-1 is sprayed and (ii) a preventive value obtained in a case where only fluxapyroxad is sprayed.

[2] = system: wheat Fusarium head blight; format: in vivo, Fusarium graminearum; conditions: cut wheat ears, 5 days after inoculation; remark: listed apart in the source

For `C[C@]1(CCl)CC[C@@H](Cc2ccc(Cl)cc2)[C@]1(O)Cn1cncn1` (racemic) [Compound I-1, (1RS,2SR,5SR)-5-(4-chlorobenzyl)-2-chloromethyl-2-methyl-1-(1H-1,2,4-triazole-1-ylmethyl)cyclopentanol], the Actual preventive value ([1]; Compound I-1 5 g/ha, Fluxapyroxad 0 g/ha) was 13, the Actual preventive value ([1]; Compound I-1 10 g/ha, Fluxapyroxad 0 g/ha) was 39 and the Actual preventive value ([1]; Compound I-1 20 g/ha, Fluxapyroxad 0 g/ha) was 61. The Actual preventive value (wheat brown rust; Compound I-1 7.5 g/ha, Fluxapyroxad 0 g/ha, from average disease occurrence area ratios of flag leaves) was 42.6 and the Actual preventive value (wheat brown rust; Compound I-1 7.5 g/ha, Fluxapyroxad 0 g/ha, from disease occurrence ratios of flag leaves) was 16.4.
Molecule `C[C@]1(CCl)CC[C@@H](Cc2ccc(F)cc2)[C@]1(O)Cn1cncn1` (racemic) [Compound I-2, (1RS,2SR,5SR)-2-chloromethyl-5-(4-fluorobenzyl)-2-methyl-1-(1H-1,2,4-triazole-1-ylmethy)cyclopentanol] has an Actual preventive value ([2]; Compound I-2 5 g/ha, Fluxapyroxad 0 g/ha) of 34, an Actual preventive value ([2]; Compound I-2 10 g/ha, Fluxapyroxad 0 g/ha) of 45 and an Actual preventive value ([2]; Compound I-2 15 g/ha, Fluxapyroxad 0 g/ha) of 62. The Actual preventive value ([2]; Compound I-2 20 g/ha, Fluxapyroxad 0 g/ha) was 78.
`Cn1cc(C(=O)Nc2ccccc2-c2cc(F)c(F)c(F)c2)c(C(F)F)n1` [Fluxapyroxad, 3-(difluoromethyl)-1-methyl-N-(3′,4′,5′-trifluorobiphenyl-2-yl)pyrazole-4-carboxamido] showed an Actual preventive value ([1]; Compound I-1 0 g/ha, Fluxapyroxad 10 g/ha) of 3, an Actual preventive value ([1]; Compound I-1 0 g/ha, Fluxapyroxad 20 g/ha) of 0 and an Actual preventive value ([1]; Compound I-1 0 g/ha, Fluxapyroxad 40 g/ha) of 4. The Actual preventive value ([2]; Compound I-2 0 g/ha, Fluxapyroxad 10 g/ha) was 8, the Actual preventive value ([2]; Compound I-2 0 g/ha, Fluxapyroxad 20 g/ha) was 16 and the Actual preventive value ([2]; Compound I-2 0 g/ha, Fluxapyroxad 30 g/ha) was 14. The Actual preventive value ([2]; Compound I-2 0 g/ha, Fluxapyroxad 40 g/ha) was 9, the Actual preventive value (wheat brown rust; Compound I-1 0 g/ha, Fluxapyroxad 7.5 g/ha, from average disease occurrence area ratios of flag leaves) was 29.3 and the Actual preventive value (wheat brown rust; Compound I-1 0 g/ha, Fluxapyroxad 7.5 g/ha, from disease occurrence ratios of flag leaves) was 6.8. It also gave an Actual preventive value (wheat brown rust; Compound I-1 0 g/ha, Fluxapyroxad 30 g/ha, from average disease occurrence area ratios of flag leaves) of 80.6 and an Actual preventive value (wheat brown rust; Compound I-1 0 g/ha, Fluxapyroxad 30 g/ha, from disease occurrence ratios of flag leaves) of 64.4.
